Columns and labels:
Escherichia coli [1] = test: Genotoxicity in Escherichia coli PQ37 assessed as ratio of beta-galactosidase/AP activity in presence and absence of drug at 10 ug; format: toxicity, organism-based
Escherichia coli [2] = test: Inhibition of nifuroxazide-induced genotoxicity in Escherichia coli PQ37 at 50 ug by SOS chromotest; format: functional
Escherichia coli [3] = test: Genotoxicity in Escherichia coli PQ37 assessed as ratio of beta-galactosidase/AP activity in presence and absence of drug at 50 ug; format: toxicity, organism-based
Escherichia coli [4] = test: Genotoxicity in Escherichia coli PQ37 assessed as ratio of beta-galactosidase/AP activity in presence and absence of drug at 2 ug; format: toxicity, organism-based
Escherichia coli [5] = test: Inhibition of nifuroxazide-induced genotoxicity in Escherichia coli PQ37 at 2 ug by SOS chromotest; format: functional
Escherichia coli [6] = test: Inhibition of nifuroxazide-induced genotoxicity in Escherichia coli PQ37 at 10 ug by SOS chromotest; format: functional
Escherichia coli [7] = test: Genotoxicity in Escherichia coli PQ37 assessed as ratio of beta-galactosidase/AP activity in presence and absence of drug at 5 ug; format: toxicity, organism-based

## Cc1nc2c3c(ncn2n1)Oc1ccc2ccccc2c1C3C(C)C (stereo not drawn)
Escherichia coli [1]
  Ratio: 1.1
Escherichia coli [2]
  Inhibition: 95%
Escherichia coli [3]
  Ratio: 1.39
Escherichia coli [4]
  Ratio: 1.01
Escherichia coli [5]
  Inhibition: 99%
Escherichia coli [6]
  Inhibition: 98%

## c1ccc(-c2nc3c4c(ncn3n2)Oc2ccc3ccccc3c2C4c2ccccc2)cc1 (stereo not drawn)
Escherichia coli [1]
  Ratio: 1.24
Escherichia coli [2]
  Inhibition: 99%
Escherichia coli [3]
  Ratio: 1.4
Escherichia coli [4]
  Ratio: 1.02
Escherichia coli [5]
  Inhibition: 78%
Escherichia coli [6]
  Inhibition: 86%

## Clc1ccccc1C1c2c(ccc3ccccc23)Oc2ncn3nc(-c4ccccc4)nc3c21 (stereo not drawn)
Escherichia coli [1]
  Ratio: 1.21
Escherichia coli [2]
  Inhibition: 48%
Escherichia coli [3]
  Ratio: 1.62
Escherichia coli [4]
  Ratio: 1.16
Escherichia coli [5]
  Inhibition: 64%
Escherichia coli [6]
  Inhibition: 60%

## Clc1ccc(C2c3c(ccc4ccccc34)Oc3ncn4nc(-c5ccccc5)nc4c32)cc1 (stereo not drawn)
Escherichia coli [1]
  Ratio: 1.33
Escherichia coli [2]
  Inhibition: 48%
Escherichia coli [3]
  Ratio: 1.67
Escherichia coli [4]
  Ratio: 1.44
Escherichia coli [5]
  Inhibition: 32%
Escherichia coli [6]
  Inhibition: 38%

## CC(C)C1c2c(ccc3ccccc23)Oc2ncn3nc(-c4ccccc4)nc3c21 (stereo not drawn)
Escherichia coli [1]
  Ratio: 1.19
Escherichia coli [2]
  Inhibition: 63%
Escherichia coli [3]
  Ratio: 1.25
Escherichia coli [4]
  Ratio: 1.11
Escherichia coli [5]
  Inhibition: 62%
Escherichia coli [6]
  Inhibition: 61%

## Cc1nc2c3c(ncn2n1)Oc1ccc2ccccc2c1C3c1ccccc1 (stereo not drawn)
Escherichia coli [1]
  Ratio: 1.32
Escherichia coli [2]
  Inhibition: 56%
Escherichia coli [3]
  Ratio: 1.56
Escherichia coli [4]
  Ratio: 1.12
Escherichia coli [5]
  Inhibition: 70%
Escherichia coli [6]
  Inhibition: 61%

## c1ccc(-c2nc3c4c(ncn3n2)Oc2ccc3ccccc3c2C4c2ccco2)cc1 (stereo not drawn)
Escherichia coli [1]
  Ratio: 1.4
Escherichia coli [2]
  Inhibition: 75%
Escherichia coli [3]
  Ratio: 1.3
Escherichia coli [4]
  Ratio: 1.3
Escherichia coli [5]
  Inhibition: 99%
Escherichia coli [6]
  Inhibition: 99%

## O=C(N/N=C/c1ccc([N+](=O)[O-])o1)c1ccc(O)cc1 [NIFUROXAZIDE]
Escherichia coli [7]
  Ratio: 12.88
